Experimental data as given in patent publication US20060258729A1, “Antibacterial pyrazole carboxylic acid hydrazides” (priority 2002, published 2006).
In brackets after ≈: the same amount, converted by molar mass.

Experiments:
[1] = biological target: T1, B. subtilis pol IIIC (Bacillus subtilis, UniProt P13267); assay: DNA polymerase assay, B. subtilis pol IIIC; assay type: biochemical; settings: for Percent Enzymatic Inhibition B. subtilis pol IIIC / inhibition at 80 µg/mL: 80 μg/mL (190-260 μM) final concentration, all four dNTPs; for B. subtilis Pol IIIC IC50, 4 dNTPs: in the presence of all four dNTP substrates; for inhibition at 80 µg/mL: read-out: Percent Enzymatic Inhibition B. subtilis pol IIIC
T1 construct: made in house
T1 sequence (P13267 whole entry): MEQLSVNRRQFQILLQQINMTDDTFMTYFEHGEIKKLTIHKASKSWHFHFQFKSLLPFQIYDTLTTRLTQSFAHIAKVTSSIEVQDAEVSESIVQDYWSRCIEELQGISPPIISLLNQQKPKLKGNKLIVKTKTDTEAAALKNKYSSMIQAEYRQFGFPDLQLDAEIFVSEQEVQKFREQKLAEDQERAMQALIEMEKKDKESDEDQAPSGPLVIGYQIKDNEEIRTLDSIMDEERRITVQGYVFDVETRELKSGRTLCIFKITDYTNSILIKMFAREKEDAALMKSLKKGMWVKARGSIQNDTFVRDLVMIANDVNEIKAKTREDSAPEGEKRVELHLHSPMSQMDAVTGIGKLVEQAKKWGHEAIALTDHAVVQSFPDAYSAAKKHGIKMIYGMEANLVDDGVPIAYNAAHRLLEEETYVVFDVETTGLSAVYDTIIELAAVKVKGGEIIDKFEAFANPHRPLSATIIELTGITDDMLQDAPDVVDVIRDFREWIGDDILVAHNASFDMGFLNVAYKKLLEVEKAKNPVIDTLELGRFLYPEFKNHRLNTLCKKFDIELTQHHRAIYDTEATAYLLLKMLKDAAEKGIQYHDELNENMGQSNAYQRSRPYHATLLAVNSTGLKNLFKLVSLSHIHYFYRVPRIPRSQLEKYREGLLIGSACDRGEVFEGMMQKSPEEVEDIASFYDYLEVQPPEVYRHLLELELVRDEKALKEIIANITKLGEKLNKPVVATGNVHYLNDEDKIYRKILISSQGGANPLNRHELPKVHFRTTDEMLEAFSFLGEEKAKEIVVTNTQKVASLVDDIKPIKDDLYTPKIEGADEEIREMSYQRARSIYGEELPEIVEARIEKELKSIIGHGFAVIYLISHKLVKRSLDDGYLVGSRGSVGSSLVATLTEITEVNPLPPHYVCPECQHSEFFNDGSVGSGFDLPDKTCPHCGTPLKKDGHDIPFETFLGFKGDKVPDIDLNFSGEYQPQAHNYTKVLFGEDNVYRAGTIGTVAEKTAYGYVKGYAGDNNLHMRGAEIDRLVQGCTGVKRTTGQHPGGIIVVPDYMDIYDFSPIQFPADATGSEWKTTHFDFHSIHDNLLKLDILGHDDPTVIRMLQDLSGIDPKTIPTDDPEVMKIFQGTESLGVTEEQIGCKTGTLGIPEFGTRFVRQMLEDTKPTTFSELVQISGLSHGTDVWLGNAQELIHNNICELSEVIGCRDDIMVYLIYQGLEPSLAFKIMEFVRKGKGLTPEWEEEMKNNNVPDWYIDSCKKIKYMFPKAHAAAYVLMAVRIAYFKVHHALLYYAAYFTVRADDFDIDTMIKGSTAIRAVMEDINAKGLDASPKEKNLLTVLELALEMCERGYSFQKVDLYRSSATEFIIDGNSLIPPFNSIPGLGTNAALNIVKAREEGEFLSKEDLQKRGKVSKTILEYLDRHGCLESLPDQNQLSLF
Method: Recombinant, purified pol IIIC and pol IIIE from Bacillus subtilis were obtained using known methods (Hammond et al., Gene 98: 29-36 (1991), regarding pol IIIC; Barnes et al., J. Bacteriol. 184, 3834-3838 (2002), regarding pol IIIE). Recombinant, purified pol IIIE from Escherichia coli was obtained from a commercial source (Enzyco, Denver, Colo.). The enzyme assays were performed in 96-well plate format using the same assay mix for all three enzymes. […] Dilutions of compounds were added to the plate in 1% DMSO (1 μL/well). Assays were initiated by the addition of 0.025 to 0.06 units of enzyme (1 unit is the amount required to incorporate 250 pmoles of [^3H] dTMP in a standard assay), incubated for 10 min at 30° C. and terminated by the addition of 200 μL of cold 10% trichloroacetic acid, 10 mM sodium pyrophosphate. Precipitated labeled DNA was collected on glass fiber filter plates that had been pre-wet with ice cold 1 M HCl, 100 mM sodium pyrophosphate. The plates were washed with the HCl solution followed by ice cold 90% ethanol and then dried and counted in a liquid scintillation counter. […] In addition, percent inhibition values are calculated as the percent reduction in the activity of a DMSO (diluent) control.

[2] = biological target: T2, B. subtilis pol IIIE (Bacillus subtilis, UniProt O34623); assay: DNA polymerase assay, B. subtilis pol IIIE; assay type: biochemical; settings: for inhibition at 80 µg/mL / Percent Enzymatic Inhibition B. subtilis pol IIIE: 80 μg/mL (190-260 μM) final concentration, all four dNTPs; for inhibition at 80 µg/mL: read-out: Percent Enzymatic Inhibition B. subtilis pol IIIE; for IC50: B. subtilis Pol IIIE IC50, 4 dNTPs
T2 construct: made in house
T2 sequence (O34623 whole entry): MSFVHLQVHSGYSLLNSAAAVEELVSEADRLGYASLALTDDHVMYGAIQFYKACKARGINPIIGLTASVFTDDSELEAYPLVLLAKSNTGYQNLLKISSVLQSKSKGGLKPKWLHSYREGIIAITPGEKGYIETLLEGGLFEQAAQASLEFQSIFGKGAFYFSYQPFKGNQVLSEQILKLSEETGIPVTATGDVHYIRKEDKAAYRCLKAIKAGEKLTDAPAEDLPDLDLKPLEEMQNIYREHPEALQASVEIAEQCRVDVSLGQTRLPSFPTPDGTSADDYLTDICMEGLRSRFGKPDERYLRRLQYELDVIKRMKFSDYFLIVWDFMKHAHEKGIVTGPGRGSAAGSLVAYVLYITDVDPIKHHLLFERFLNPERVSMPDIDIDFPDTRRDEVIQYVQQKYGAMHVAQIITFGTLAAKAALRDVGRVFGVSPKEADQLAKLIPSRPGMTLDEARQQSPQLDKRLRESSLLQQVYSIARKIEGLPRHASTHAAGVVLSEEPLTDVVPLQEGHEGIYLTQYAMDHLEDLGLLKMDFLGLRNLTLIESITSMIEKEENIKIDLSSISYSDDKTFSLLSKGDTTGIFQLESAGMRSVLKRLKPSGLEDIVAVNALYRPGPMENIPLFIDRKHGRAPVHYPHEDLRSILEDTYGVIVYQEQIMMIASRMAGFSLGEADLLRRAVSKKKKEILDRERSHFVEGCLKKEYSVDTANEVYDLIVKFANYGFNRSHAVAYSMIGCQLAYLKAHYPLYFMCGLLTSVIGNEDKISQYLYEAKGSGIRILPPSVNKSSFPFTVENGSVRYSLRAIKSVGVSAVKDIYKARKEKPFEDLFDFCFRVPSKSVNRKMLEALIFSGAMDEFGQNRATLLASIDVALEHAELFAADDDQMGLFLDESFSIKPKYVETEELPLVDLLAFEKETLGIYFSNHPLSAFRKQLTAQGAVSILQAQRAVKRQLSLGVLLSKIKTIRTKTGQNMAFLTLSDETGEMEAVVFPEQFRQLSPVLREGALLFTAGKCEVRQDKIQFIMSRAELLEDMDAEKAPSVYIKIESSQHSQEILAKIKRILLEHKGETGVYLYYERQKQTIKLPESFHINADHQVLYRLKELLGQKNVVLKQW
Method: (§1) Recombinant, purified pol IIIC and pol IIIE from Bacillus subtilis were obtained using known methods (Hammond et al., Gene 98: 29-36 (1991), regarding pol IIIC; Barnes et al., J. Bacteriol. 184, 3834-3838 (2002), regarding pol IIIE). Recombinant, purified pol IIIE from Escherichia coli was obtained from a commercial source (Enzyco, Denver, Colo.). The enzyme assays were performed in 96-well plate format using the same assay mix for all three enzymes. Each 25 μL assay contained 30 mM Tris, pH 7.5, 10 mM magnesium acetate, 4 mM dithiothreitol, 20% glycerol, with 10 μM dATP, dCTP, dGTP and dTTP (3H-labelled at 1.44 Ci/mmole) and 0.4 mg/mL activated calf thymus DNA as substrates. Dilutions of compounds were added to the plate in 1% DMSO (1 μL/well). Assays were initiated by the addition of 0.025 to 0.06 units of enzyme (1 unit is the amount required to incorporate 250 pmoles of [^3H] dTMP in a standard assay), incubated for 10 min at 30° C. and terminated by the addition of 200 μL of cold 10% trichloroacetic acid, 10 mM sodium pyrophosphate. Precipitated labeled DNA was collected on glass fiber filter plates that had been pre-wet with ice cold 1 M HCl, 100 mM sodium pyrophosphate. The plates were washed with the HCl solution followed by ice cold 90% ethanol and then dried and counted in a liquid scintillation counter. The calculated IC50 is the concentration needed to inhibit 50% of the DNA polymerase activity in the presence of all four dNTP substrates. In addition, percent inhibition values are calculated as the percent reduction in the activity of a DMSO (diluent) control.

[3] = biological target: T3, E. coli pol IIIE (Escherichia coli, UniProt P10443); assay: DNA polymerase assay, E. coli pol IIIE; assay type: biochemical; settings: 80 μg/mL (190-260 μM) final concentration, all four dNTPs
T3 construct: purchased Enzyco, Denver, Colo
T3 sequence (P10443 whole entry): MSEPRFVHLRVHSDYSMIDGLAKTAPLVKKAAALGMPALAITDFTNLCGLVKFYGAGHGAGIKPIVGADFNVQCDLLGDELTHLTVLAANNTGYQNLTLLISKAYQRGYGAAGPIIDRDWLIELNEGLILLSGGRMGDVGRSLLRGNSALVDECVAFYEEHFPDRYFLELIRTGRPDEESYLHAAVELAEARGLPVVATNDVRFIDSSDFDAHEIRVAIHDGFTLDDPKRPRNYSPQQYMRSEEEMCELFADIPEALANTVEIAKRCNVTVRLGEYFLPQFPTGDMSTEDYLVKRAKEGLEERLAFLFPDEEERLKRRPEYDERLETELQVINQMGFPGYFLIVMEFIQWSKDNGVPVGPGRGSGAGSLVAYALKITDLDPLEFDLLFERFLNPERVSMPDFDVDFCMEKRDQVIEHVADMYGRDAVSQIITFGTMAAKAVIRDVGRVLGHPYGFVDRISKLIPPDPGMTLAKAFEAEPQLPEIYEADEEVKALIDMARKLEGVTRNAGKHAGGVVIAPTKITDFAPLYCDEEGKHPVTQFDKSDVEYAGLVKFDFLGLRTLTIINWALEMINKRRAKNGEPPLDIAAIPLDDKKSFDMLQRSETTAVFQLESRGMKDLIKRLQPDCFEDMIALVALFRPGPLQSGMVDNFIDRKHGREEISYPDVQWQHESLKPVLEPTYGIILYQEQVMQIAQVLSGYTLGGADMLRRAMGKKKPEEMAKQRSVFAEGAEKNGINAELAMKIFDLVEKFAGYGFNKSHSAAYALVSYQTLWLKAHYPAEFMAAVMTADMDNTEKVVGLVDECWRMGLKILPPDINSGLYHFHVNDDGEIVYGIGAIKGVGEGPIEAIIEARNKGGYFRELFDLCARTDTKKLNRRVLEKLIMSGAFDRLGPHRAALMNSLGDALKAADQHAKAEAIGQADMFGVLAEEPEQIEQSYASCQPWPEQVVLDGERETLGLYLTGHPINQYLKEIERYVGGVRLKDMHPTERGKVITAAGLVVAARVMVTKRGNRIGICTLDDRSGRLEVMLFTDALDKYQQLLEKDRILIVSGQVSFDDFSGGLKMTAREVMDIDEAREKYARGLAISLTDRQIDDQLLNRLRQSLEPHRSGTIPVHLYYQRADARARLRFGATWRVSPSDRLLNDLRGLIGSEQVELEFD
Method: as §1

[4] = tested on: Bacillus subtilis strain BD54; assay: Inhibition of bacterial growth (MIC), Bs; assay type: cell-based; settings: 16 to 18 hours, 37° C.; for MIC: read-out: Minimum Inhibitory Concentration for Bacterial Growth, Bs
Method: (§2) Each compound was assayed against a panel of a strain of Bacillus subtilis, of strains of antibiotic-resistant and sensitive Enterococcus and Staphylococcus species, and of a strain of the Gram-negative bacterium Escherichia coli. Compounds were dissolved in DMSO at 100× the desired highest concentration and added to one well of a 96-well microassay plate. Two-fold serial drug dilutions were made across the plate in DMSO to yield 11 concentrations (usually 80-0.078 μg/mL) plus an untreated control. Drugs were then transferred to fresh plates using 1.5 μL per well. Log phase cultures were diluted to yield a concentration of 1×10^5 colony forming units/mL in either LB or BHI medium and transferred to the plates containing drug for a final volume of 150 μL. Each well, including the DMSO controls, contained a final concentration of 1% DMSO. Plates were incubated with shaking at 37° C. for 16 to 18 hours. Cell growth was determined by measuring optical density (570 nm, 1 cm path length) in a microplate reader. MIC (minimum inhibitory concentration) is equivalent to the lowest concentration at which growth is not observed. The bacterial strains and MIC determinations have been well characterized and are described elsewhere (Tarantino et al., Antimicrob. Agents Chemother., 43: 1982-1987 (1999); Daly et al., Antimicrob. Agents Chemother., 44: 2217-2221 (2000)).

[5] = tested on: Staphylococcus aureus strain IP 8; assay: Inhibition of bacterial growth (MIC), Sa; assay type: cell-based; settings: 37° C.; for MIC: IP8, 16 to 18 hours, read-out: Minimum Inhibitory Concentration for Bacterial Growth, Sa; for Minimum Inhibitory Concentration for Bacterial Growth, Sa: 16 to 18 hours
Method: as §2

[6] = tested on: S. aureus Smith strain; assay: Inhibition of bacterial growth (MIC), Sm; assay type: cell-based, Staphylococcus aureus; settings: 16 to 18 hours, 37° C.; for MIC: Staphylococcus aureus, read-out: Minimum Inhibitory Concentration for Bacterial Growth, Sm
Method: as §2

[7] = tested on: methicillin-resistant S. aureus strain 1094; assay: Inhibition of bacterial growth (MIC), MRSA; assay type: cell-based, Staphylococcus aureus; settings: 16 to 18 hours, 37° C.; for MIC: Staphylococcus aureus, MRSA, read-out: Minimum Inhibitory Concentration for Bacterial Growth, MRSA
Method: as §2

[8] = tested on: Enterococcus faecalis strain 29212; assay: Inhibition of bacterial growth (MIC), Efcl; assay type: cell-based; settings: 16 to 18 hours, 37° C.; for MIC: read-out: Minimum Inhibitory Concentration for Bacterial Growth, Efcl
Method: as §2

[9] = tested on: E. faecium clinical isolate; assay: Inhibition of bacterial growth (MIC), Efcm; assay type: cell-based; settings: 16 to 18 hours, 37° C.; for MIC: Enterococcus faecium, read-out: Minimum Inhibitory Concentration for Bacterial Growth, Efcm
Method: as §2

[10] = tested on: vancomycin-resistant Enterococcus strain B42762; assay: Inhibition of bacterial growth (MIC), VRE; assay type: cell-based; settings: 16 to 18 hours, 37° C.; for MIC: VRE, read-out: Minimum Inhibitory Concentration for Bacterial Growth, VRE
Method: as §2

[11] = tested on: Escherichia coli strain J53; assay: Inhibition of bacterial growth (MIC), Ec; assay type: cell-based; settings: 16 to 18 hours, 37° C.; for MIC: read-out: Minimum Inhibitory Concentration for Bacterial Growth, Ec
Method: as §2

[12] = biological target: T2, B. subtilis pol IIIE; assay: DNA polymerase assay, B. subtilis pol IIIE; assay type: biochemical
[13] = B. subtilis Pol IIIC IC50, −dATP, in the absence of dATP
[14] = B. subtilis Pol IIIC IC50, −dCTP, in the absence of dCTP
[15] = B. subtilis Pol IIIC IC50, −dGTP, in the absence of dGTP
[16] = in the presence of all four dNTP substrates
[17] = B. subtilis Pol IIIE IC50, −dATP, in the absence of dATP
[18] = B. subtilis Pol IIIE IC50, −dCTP, in the absence of dCTP
[19] = B. subtilis Pol IIIE IC50, −dGTP, in the absence of dGTP

Compound	Percent Enzymatic Inhibition B. subtilis pol IIIC [1]	IC50 [1, 13] [µM]	IC50 [1, 14] [µM]	IC50 [1, 15] [µM]	B. subtilis Pol IIIC IC50, 4 dNTPs [1]	inhibition at 80 µg/mL [2] [%]	IC50 [2, 16] [µM]	MIC [4] [µg/mL]	MIC [5] [µg/mL]	MIC [6] [µg/mL]	MIC [7] [µg/mL]	MIC [8] [µg/mL]	MIC [9] [µg/mL]	MIC [10] [µg/mL]	MIC [11] [µg/mL]	IC50 [12, 17] [µM]	IC50 [12, 18] [µM]	IC50 [12, 19] [µM]	inhibition at 80 µg/mL [1] [%]	Percent Enzymatic Inhibition E. coli pol IIIE [3]	other results
COc1cccc(-c2cc(C(=O)NN=Cc3ccc(OC)c(OC)c3)[nH]n2)c1 [Compound 2]	Inactive	99	287	406	Inactive	> 20	604	20 (≈ 52.6 µM)	10 (≈ 26.3 µM)	20 (≈ 52.6 µM)	20 (≈ 52.6 µM)	40 (≈ 105 µM)	60 (≈ 158 µM)	40 (≈ 105 µM)	> 80	57	104	78	–	–	inhibition at 80 µg/mL ([3]; read-out: Percent Enzymatic Inhibition E. coli pol IIIE): 1.7%
CCOc1cc(C=NNC(=O)c2cc(-c3cccc(OC)c3)n[nH]2)ccc1O [Compound 3]	–	141	563	301	Inactive	> 20	–	> 80	20 (≈ 52.6 µM)	40 (≈ 105 µM)	40 (≈ 105 µM)	80 (≈ 210 µM)	80 (≈ 210 µM)	40 (≈ 105 µM)	> 80	124	222	311	5.3	Inactive	B. subtilis Pol IIIE IC50, 4 dNTPs [2, 16]: Inactive
O=C(NN=Cc1ccc(O)cc1O)c1cc(-c2ccccc2)n[nH]1 [Compound 4]	–	81	228	98	Inactive	> 20	699	40 (≈ 124 µM)	30 (≈ 93.1 µM)	60 (≈ 186 µM)	40 (≈ 124 µM)	> 80	30 (≈ 93.1 µM)	> 80	> 80	278	347	183	15.8	Inactive	–
COc1cccc(-c2cc(C(=O)NN=Cc3ccc(O)cc3)[nH]n2)c1 [Compound 14]	0.5%	–	–	–	–	–	–	–	–	–	–	–	–	–	–	–	–	–	–	Inactive	Percent Enzymatic Inhibition B. subtilis pol IIIE [2]: 18.1%; Minimum Inhibitory Concentration for Bacterial Growth, Bs [4]: >80 µg/mL; Minimum Inhibitory Concentration for Bacterial Growth, Sa [5]: 80 µg/mL; Minimum Inhibitory Concentration for Bacterial Growth, Sm [6]: 80 µg/mL; Minimum Inhibitory Concentration for Bacterial Growth, MRSA [7]: 80 µg/mL; Minimum Inhibitory Concentration for Bacterial Growth, Efcl [8]: >80 µg/mL; Minimum Inhibitory Concentration for Bacterial Growth, Efcm [9]: >80 µg/mL; Minimum Inhibitory Concentration for Bacterial Growth, VRE [10]: 80 µg/mL; Minimum Inhibitory Concentration for Bacterial Growth, Ec [11]: >80 µg/mL
COc1ccc(C=NNC(=O)c2cc(-c3ccc(Cl)cc3)n[nH]2)cc1OC [Compound 15]	Inactive	–	–	–	–	–	–	–	–	–	–	–	–	–	–	–	–	–	–	Inactive	Percent Enzymatic Inhibition B. subtilis pol IIIE [2]: 13.7%; Minimum Inhibitory Concentration for Bacterial Growth, Bs [4]: >80 µg/mL; Minimum Inhibitory Concentration for Bacterial Growth, Sa [5]: 8 µg/mL; Minimum Inhibitory Concentration for Bacterial Growth, Sm [6]: >80 µg/mL; Minimum Inhibitory Concentration for Bacterial Growth, MRSA [7]: >80 µg/mL; Minimum Inhibitory Concentration for Bacterial Growth, Efcl [8]: >80 µg/mL; Minimum Inhibitory Concentration for Bacterial Growth, Efcm [9]: 40 µg/mL; Minimum Inhibitory Concentration for Bacterial Growth, VRE [10]: >80 µg/mL; Minimum Inhibitory Concentration for Bacterial Growth, Ec [11]: >80 µg/mL
